# pIC50: −log10 of the molar value. “And” between values parts separate entries of the source, which are not always exact repeats. Equal entries are not always repeated.
# System: P. falciparum 3D7 growth, pLDH absorbance
# Experiment: blood-stage malaria parasite growth potency – strain 3D7, dose response (AID 2305)
row,SMILES,pIC50
1,CC(CN1CCN(C)CC1)C(=O)Nc1ccc(-c2ccc(-c3nc4ccc(F)cc4[nH]3)cc2)cc1 (centres undefined),6.10
2,O=C(Nc1cc(F)cc(F)c1)N1CCOC(CCN2CCC(c3ccccc3)CC2)(c2ccc(Cl)c(Cl)c2)C1 (centres undefined),6.33
3,COc1cc(C(=O)NC2CCN(Cc3ccccc3)CC2)ccc1-c1nc2c(Cl)cc(C(F)(F)F)cc2[nH]1,6.17
4,Cn1ccnc1CNC(=O)c1ccc(-c2cccc(-c3nc4ccc(C(F)(F)F)cc4[nH]3)c2)cc1,6.14
5,COc1ccc(-c2cnc3[nH]cc(-c4ccc(CCC(=O)O)cc4)c3c2)cn1,6.11
6,NC1=NC(c2ccccc2)(c2ccccc2)C(=O)N1C1CCCCC1,6.18
7,N#Cc1ccc(C(=O)NC2CCN(CCCCCNC(=O)/C=C/c3ccc(Cl)c(Cl)c3)CC2)cc1,6.08
8,COc1ccccc1CC(C)NCC(O)c1cccc(Cl)c1 (centres undefined),6.09
9,c1ccc2c(c1)cc(CNCCCN1CCN(CCCNCc3cc4ccccc4c4ccccc34)CC1)c1ccccc12,6.70
10,O=C(Nc1ccc2c(c1)CCC2)c1ccc(CN2CCCN(Cc3cccc(O)c3)CC2)cc1,6.05
11,CCN(CC)CCCC(C)Nc1c2ccccc2nc2c1ccc1ccccc12 (centres undefined),5.96
12,CC[C@@]1(O)C(=O)OCc2c1cc1n(c2=O)Cc2c-1nc1cc3c(cc1c2CN1CCN(C)CC1)OCCO3,6.35
13,O=C(Nc1ccc(OC2CCN(Cc3ccsc3)CC2)c(Cl)c1)c1cccs1,6.22
14,CCCNc1ccc2nccc(CCN3CCC(NCc4ccc5c(c4)NC(=O)CS5)CC3)c2n1,6.24
15,Nc1nc(N)c2cc(Cc3ccccc3Cl)cnc2n1,6.96
16,CCC(=O)Nc1cc(=O)[nH]c2nc(-c3ccc(Cl)cc3)nn12,6.24
17,O=C(N[C@H]1CCN(Cc2ccc(OCCCN3CCCCC3)cc2)C1)c1ccc(Oc2ccccc2)cc1,6.11
18,C=CCN(c1nc(NC)nc(NCc2c(OC)cccc2OC)n1)C1CCCC1,5.84
19,CCCCCCN1CCCN(Cc2ccc(C(=O)Nc3ccc(Cl)cc3)cc2)CC1,5.92
20,Cc1[nH]c(C)c(-c2ccc(Oc3ccc(OC(F)(F)F)cc3)cc2)c(=O)c1Br,6.25 and 6.96
21,COCCCNC(=O)c1ccc(O)c(-c2cc(Cl)cc(Cl)c2)c1,6.04
22,CC[C@H]1CN2CC[C@@H]1C[C@H]2[C@H](O)c1ccnc2ccc(Cl)cc12,6.92
23,COc1ccc(CNC2CCN(C)CC2)cc1-c1cccc(S(=O)(=O)NCc2ccccc2)c1,6.14
24,CCN(CC)CCc1ccc2c(=O)cc(CCc3cccc(F)c3F)n(CC(=O)N(C)Cc3ccc(-c4ccc(C(F)(F)F)cc4)cc3)c2c1,6.07
25,CN=C(N)c1ccc(NC(=O)C=Cc2ccc(C(=O)Nc3ccc(C(N)=NC)cc3)cc2)cc1,7.52

row,SMILES,pIC50
1,Cc1ccc(Cn2c(N3CCC(C(=O)NCc4cccs4)CC3)nc3ccccc32)cc1,6.12
2,CCCCCCN1CCC(NCc2ccc(Cl)cc2)CC1,6.07
3,O=C(Nc1ccccc1)c1cccc(Nc2nccc(Nc3ccc(Oc4ccccc4)cc3)n2)c1,5.81
4,Cc1noc(C)c1-c1ccc2c(Nc3ccccc3C(C)(C)C)c(C(=O)NC3CCCC3)cnc2c1,5.98
5,CCCCOc1cc(OC)c2ccccc2c1CCNCCCCNCCc1c(OCCCC)cc(OC)c2ccccc12,5.98
6,O=C(Nc1ccc(Oc2ccccc2)cc1)N(CCN1CCCC1)Cc1ccc(-c2ccc(CN3CCNCC3)cc2)cc1,6.05
7,O=C(/C=C/c1ccc(Cl)c(Cl)c1)NCCCCCN1CCCN(C(=O)Nc2cc(Cl)cc(Cl)c2)CC1,6.10
8,Cc1cccc2[nH]c(-c3cccc(-c4ccc(NC(=O)c5ccncc5)cc4)c3)nc12,6.30
9,CCCCCCN1CCC(NCc2cccc([N+](=O)[O-])c2)CC1,6.17
10,FC(F)(F)c1ccc2nc(-c3cccc(-c4ccc(CNCCN5CCNCC5)cc4)c3)[nH]c2c1,6.07
11,CN(C)CCN(C)Cc1ccc(-c2ccc(NC(=O)c3cccc(C#N)c3)cc2)cc1,5.90
12,COc1cc(C)nc2ccc(NC(=O)c3cc(C(F)(F)F)cc(C(F)(F)F)c3)cc12,6.04
13,Cc1cc(C)cc(OCC(O)CN(Cc2cc(Cl)cc(Cl)c2)C(=O)Nc2ccc([N+](=O)[O-])cc2)c1 (centres undefined),6.10
14,COc1cc(Cc2cnc(N)nc2N)ccc1Oc1ccc(N)cc1,6.06
15,CCCC(C)Nc1nc(C)cc(N[C@@H](Cc2ccccc2)C(=O)Nc2ccccc2)n1 (some centres undefined),6.07
16,COc1ccc2nccc([C@@H](O)CN3CCC(NCc4ccc5nc[nH]c(=O)c5c4)CC3)c2c1,6.04
17,CCCc1ccccc1Nc1nc(C)cc(N(CC)CCCN2CCCCC2)n1,6.21
18,CCCN(CCC)C(=O)c1cc(-c2cccc(C)c2)nc2ccccc12,5.97
19,Nc1ccc(-c2nc3ccc(-c4ccc5nc(-c6ccc(N)cc6)[nH]c5c4)cc3[nH]2)cc1,6.89
20,CCN(CC)c1cc(C)c2cc(NC(=O)c3cc(=O)c4ccccc4o3)ccc2n1,6.66
21,CN1CCN(S(=O)(=O)c2cccc(Nc3nccc(N(C)c4ccc5c(c4)nc(NC(=O)c4cccs4)n5C)n3)c2)CC1,6.12
22,CCCCSc1ccc2nc(-c3c[nH]c4ccc(C#N)cc34)cn2c1,6.02
23,O=C(/C=C/c1ccc(Cl)c(Cl)c1)NCCCCCN1CCC(NC(=O)NC2CCCCCC2)CC1,6.34
24,CN1CCN(CCCN(Cc2ccc(-c3ccc(CNCCc4ccccc4)cc3)cc2)C(=O)c2cccs2)CC1,5.84

# — PubChem BioAssay AID2305 (GlaxoSmithKline (GSK), 2010)
